The source of these data is patent US20170043031A1, “IGF-1R ANTIBODY-DRUG-CONJUGATE AND ITS USE FOR THE TREATMENT OF CANCER” (PIERRE FABRE MEDICAMENT, priority 2014, published 2017).

The assay deals with lysosome functions. The experiment in a line: Inhibition of Abs degradation using lysosome inhibitor. The format is cell-based. To be noted: 10 μg/ml of Ab, 2 h at 37° C. The protocol:
In order to confirm that antibodies reached the lysosome were they are degraded, cells were treated or not with bafilomycine A1, a potent inhibitor of lysosome functions. Cells were then incubated with 10 μg/ml of Ab to be tested at 4° C., washed and incubated for 2 h at 37° C. The internalized Ab was detected after cell permeabilisation using a secondary anti-mouse IgG-Alexa 488 Ab.

As to `CO/C1=C\C(C)=C\[C@@H](C)[C@@H](O)[C@@H](C)C/C(C)=C/C=C/[C@H](OC)[C@@H]([C@@H](C)[C@@H](O)[C@H](C)[C@@]2(O)C[C@@H](O)[C@H](C)[C@@H](C(C)C)O2)OC1=O` [bafilomycine A1], the “degradation of intracellular Ab” value was “prevented the degradation of intracellular Ab”.
